In US20230286969A1, “AROMATIC SPIRO RING AMIDE DERIVATIVES FOR THE TREATMENT AND PROPHYLAXIS OF HEPATITIS B VIRUS INFECTION” (Hoffmann-La Roche Inc., priority 2020, published 2023) one finds IC50 and CC50 data, which are given here for 23 molecules.

Read-outs that look alike come from different tables or passages of the source.

Common to all, as to assay type: cell-based
Data set [1] relates to HBsAg. Description: PHH HBV natural infection assay, HBsAg (alphalisa). The essentials: (§1)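 Primary human hepatocytes infected with HBV at 200 GE/cell plus 4% PEG8000 for 24 h, then sandwich-cultured 72 h. Compounds were added in two refreshes 72 h apart. HBsAg and HBeAg in supernatant measured by AlphaLISA.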
Data set [2] is described as follows: PHH natural infection assay, cytotoxicity (Cell Counting Kit-8). As to conditions: human, HBV-infected primary human hepatocytes, CCK8, end of treatment. In short, it runs like this: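 HBV-infected at 200 GE/cell with 4% PEG8000 for 24 h, then sandwich-cultured 72 h in 1% DMSO and 0.25 mg/mL matrix gel. Compound added twice at 72-h intervals; supernatant HBsAg and HBeAg read by AlphaLISA, HBV DNA by quantitative fluorescence PCR kit. Cytotoxicity by CCK-8.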
A general note: Formazan colour is commonly taken as a measure of viable cells.

The subject of data set [3] is HBeAg. Description: PHH HBV natural infection assay, HBeAg (alphalisa). In short, it runs like this:
as §1

The mark [4] stands for this setting: Hepatitis B virus, Hepatocyte, 72 h, read-out: HBsAg IC50, HBV-infected primary human hepatocytes, supernatant, compound medium refreshed two times with 72-hour interval.
[5] abbreviates: Hepatitis B virus, Hepatocyte, 72 h, read-out: HbeAg IC50, HBV-infected primary human hepatocytes, supernatant, compound medium refreshed two times with 72-hour interval.
Setting [6] is: read-out: HBsAg IC50, HBV-infected primary human hepatocytes, supernatant, compound medium refreshed two times with 72-hour interval.
Where [7] appears, read: read-out: HbeAg IC50, HBV-infected primary human hepatocytes, supernatant, compound medium refreshed two times with 72-hour interval.

In general, IC50 refers to the concentration at which inhibition is half-maximal. By CC50 is commonly meant the concentration that lowers cell viability or growth by half. The low end stands for greater toxicity to the cells, the high end for lower toxicity to the cells. With `N=S(=O)(c1ccc(C(=O)NC2CC3(C2)CC(c2nc4cc(Cl)ccc4o2)C3)o1)N1CCOCC1` (stereo not drawn) [Example 67, N-[6-(5-chloro-1,3-benzoxazol-2-yl)spiro[3.3]heptan-2-yl]-5-(morpholinosulfonimidoyl)furan-2-carboxamide], the IC50 is 6.24 µM in data set [1] (setting [4]) and 3.65 µM in data set [3] (setting [5]). Further, the CC50 at 144 h in data set [2] was more than 10 µM.
In the same order, the values of `O=C(NC1CC2(C1)CC(c1nc3cc(Cl)ccc3o1)C2)c1ccc(S(=O)(=O)CC2CC2)o1` (stereo not drawn) [Example 20, N-[6-(5-chloro-1,3-benzoxazol-2-yl)spiro[3.3]heptan-2-yl]-5-(cyclopropylmethylsulfonyl)furan-2-carboxamide] are 0.445 µM, 0.18 µM and 89.2 µM.
Take `COCC(=O)NS(=O)(=O)c1ccc(C(=O)N[C@H]2CC3(C2)C[C@H](c2nc4cc(Cl)ccc4o2)C3)o1` (single isomer, unassigned) [Example 73, (Sa)—N-[6-(5-chloro-1,3-benzoxazol-2-yl)spiro[3.3]heptan-2-yl]-5-[(2-methoxyacetyl)sulfamoyl]furan-2-carboxamide, or (Ra)—N-[6-(5-chloro-1,3-benzoxazol-2-yl)spiro[3.3]heptan-2-yl]-5-[(2-methoxyacetyl)sulfamoyl]furan-2-carboxamide]: the results for the IC50 in data set [1] (setting [4]) and in data set [3] (setting [5]) were 0.416 µM and 0.256 µM, respectively. In addition, the CC50 at 144 h in data set [2] is more than 100 µM.
As to `CCOC(=O)NS(=O)(=O)c1ccc(C(=O)N[C@H]2CC3(C2)C[C@H](c2nc4cc(Cl)ccc4o2)C3)o1` (single isomer, unassigned) [Example 74, (Sa)-ethyl N-[[5-[[6-(5-chloro-1,3-benzoxazol-2-yl)spiro[3.3]heptan-2-yl]carbamoyl]-2-furyl]sulfonyl]carbamate, or (Ra)-ethyl N-[[5-[[6-(5-chloro-1,3-benzoxazol-2-yl)spiro[3.3]heptan-2-yl]carbamoyl]-2-furyl]sulfonyl]carbamate], the IC50 in data set [1] (setting [4]) turned out to be 6.67 µM; in data set [3] (setting [5]), 5.92 µM. In addition, the CC50 at 144 h in data set [2] was more than 10 µM.
The corresponding values for `COc1ccc(C(=O)NC2CC3(C2)CC(c2nc4cc(Cl)ccc4o2)C3)o1` (stereo not drawn) [Example 8, N-[6-(5-chloro-1,3-benzoxazol-2-yl)spiro[3.3]heptan-2-yl]-5-methoxy-furan-2-carboxamide] are 7.96 µM, 5.84 µM and 94.2 µM.
In the same order, the values of `N=S(=O)(Cc1ccc(C(=O)NC2CC3(C2)CC(c2nc4cc(Cl)ccc4o2)C3)o1)C1CC1` (stereo not drawn) [Example 60, N-[6-(5-chloro-1,3-benzoxazol-2-yl)spiro[3.3]heptan-2-yl]-5-[(cyclopropylsulfonimidoyl)methyl]furan-2-carboxamide] are 1.96 µM, 1.91 µM and more than 100 µM.
As to `[H][C@]1(NC(=O)c2ccc(S(C)(=O)=O)o2)C[C@]2(C1)C[C@]([H])(c1nc3cc(Cl)ccc3o1)C2` (single isomer, unassigned) [Example 15-b, (Ra)—N-[6-(5-chloro-1,3-benzoxazol-2-yl)spiro[3.3]heptan-2-yl]-5-methylsulfonyl-furan-2-carboxamide], the IC50 in data set [1] (setting [6]) came to 0.896 µM; in data set [3] (setting [7]), 0.694 µM. In data set [2], this molecule gave a CC50 at 144 h of 35.8 µM.
`CC(C)c1ccc(C(=O)NC2CC3(C2)CC(c2nc4cc(Cl)ccc4o2)C3)o1` (stereo not drawn) [Example 7, N-[6-(5-chloro-1,3-benzoxazol-2-yl)spiro[3.3]heptan-2-yl]-5-isopropyl-furan-2-carboxamide]: the IC50 in data set [1] (setting [4]) came to 3.57 µM; in data set [3] (setting [5]), 1.34 µM. The CC50 at 144 h in data set [2] came to 85.9 µM.
The corresponding values for `O=C(NC1CC2(C1)CC(c1nc3cc(Cl)ccc3o1)C2)c1ccc(Br)o1` (stereo not drawn) [Example 3, 5-bromo-N-[6-(5-chloro-1,3-benzoxazol-2-yl)spiro[3.3]heptan-2-yl]furan-2-carboxamide] are 9.79 µM, 7.64 µM and 96.2 µM.
In the case of `[H][C@]1(NC(=O)c2ccc(S(C)(=O)=O)o2)C[C@@]2(C1)C[C@]([H])(c1nc3cc(Cl)ccc3o1)C2` (single isomer, unassigned) [Example 15-a, (Sa)—N-[6-(5-chloro-1,3-benzoxazol-2-yl)spiro[3.3]heptan-2-yl]-5-methylsulfonyl-furan-2-carboxamide], the IC50 in data set [1] (setting [6]) turned out to be 5.19 µM; in data set [3] (setting [7]), 3.94 µM. The molecule further had a CC50 at 144 h in data set [2] of 84 µM.
As for `CC(C)CS(=O)(=O)c1ccc(C(=O)NC2CC3(C2)CC(c2nc4cc(Cl)ccc4o2)C3)o1` (stereo not drawn) [Example 22, N-[6-(5-chloro-1,3-benzoxazol-2-yl)spiro[3.3]heptan-2-yl]-5-isobutylsulfonyl-furan-2-carboxamide], the IC50 in data set [1] (setting [4]) was determined as 0.506 µM; in data set [3] (setting [5]), 0.264 µM. This molecule also came in with a CC50 at 144 h in data set [2] of 75.6 µM.
The corresponding values for `O=C(NC1CC2(C1)CC(c1nc3ccc(Cl)cc3o1)C2)c1ccc(C(F)(F)F)o1` (stereo not drawn) [Example 46, N-[6-(6-chloro-1,3-benzoxazol-2-yl)spiro[3.3]heptan-2-yl]-5-(trifluoromethyl)furan-2-carboxamide] are 5.83 µM, 2.81 µM and 89.8 µM.
The corresponding values for `CN1CC(CS(=O)(=O)c2ccc(C(=O)NC3CC4(C3)CC(c3nc5cc(Cl)ccc5o3)C4)o2)C1` (stereo not drawn) [Example 25, N-[6-(5-chloro-1,3-benzoxazol-2-yl)spiro[3.3]heptan-2-yl]-5-[(1-methylazetidin-3-yl)methylsulfonyl]furan-2-carboxamide] are 4.19 µM, 3.73 µM and more than 10 µM.
The corresponding values for `N=S(=O)(CC1CC1)c1ccc(C(=O)NC2CC3(C2)CC(c2nc4cc(Cl)ccc4o2)C3)o1` (stereo not drawn) [Example 54, N-[6-(5-chloro-1,3-benzoxazol-2-yl)spiro[3.3]heptan-2-yl]-5-(cyclopropylmethylsulfonimidoyl)furan-2-carboxamide] are 0.47 µM, 0.542 µM and 88.8 µM.
`NS(=O)(=O)Cc1ccc(C(=O)NC2CC3(C2)CC(c2nc4cc(Cl)ccc4o2)C3)o1` (stereo not drawn) [Example 33, N-[6-(5-chloro-1,3-benzoxazol-2-yl)spiro[3.3]heptan-2-yl]-5-(sulfamoylmethyl)furan-2-carboxamide]: the results for the IC50 in data set [1] (setting [4]) and in data set [3] (setting [5]) were 1.41 µM and 1.39 µM, respectively. This molecule also yielded a CC50 at 144 h in data set [2] of more than 100 µM.
On to `COCCS(=O)(=O)c1ccc(C(=O)NC2CC3(C2)CC(c2nc4cc(Cl)ccc4o2)C3)o1` (stereo not drawn) [Example 28, N-[6-(5-chloro-1,3-benzoxazol-2-yl)spiro[3.3]heptan-2-yl]-5-(2-methoxyethylsulfonyl)furan-2-carboxamide], for which the IC50 is 0.758 µM in data set [1] (setting [4]) and 0.509 µM in data set [3] (setting [5]). Besides, it took 94.2 µM to reach half-maximal cytotoxicity in data set [2] (CC50 at 144 h).
Regarding `CS(=O)(=O)c1ccc(C(=O)NC2CC3(C2)CC(c2nc4cc(Cl)ccc4o2)C3)o1` (stereo not drawn) [Example 15, N-[6-(5-chloro-1,3-benzoxazol-2-yl)spiro[3.3]heptan-2-yl]-5-methylsulfonyl-furan-2-carboxamide], the IC50 in data set [1] (setting [4]) came to 1.95 µM; in data set [3] (setting [5]) it was 1.17 µM. Besides, half-maximal cytotoxicity in data set [2] (CC50 at 144 h) was put at 79 µM.
The corresponding values for `O=C(NC1CC2(C1)CC(c1nc3cc(Cl)cnc3o1)C2)c1ccc([S+]([O-])C2CC2)o1` (stereo not drawn) [Example 50, N-[6-(6-chlorooxazolo[5,4-b]pyridin-2-yl)spiro[3.3]heptan-2-yl]-5-cyclopropylsulfinyl-furan-2-carboxamide] are 0.54 µM, 0.35 µM and more than 100 µM.
In the same order, the values of `O=C(NC1CC2(C1)CC(c1nc3cc(Cl)ccc3o1)C2)c1ccc([S+]([O-])C2CC2)o1` (stereo not drawn) [Example 40, N-[6-(5-chloro-1,3-benzoxazol-2-yl)spiro[3.3]heptan-2-yl]-5-cyclopropylsulfinyl-furan-2-carboxamide] are 0.084 µM, 0.067 µM and more than 10 µM.
`O=C(NC1CC2(C1)CC(c1nc3cc(Cl)ccc3o1)C2)c1ccc(S(=O)(=O)NC(=O)C2CCCCC2)o1` (stereo not drawn) [Example 82, N-[6-(5-chloro-1,3-benzoxazol-2-yl)spiro[3.3]heptan-2-yl]-5-(cyclohexanecarbonylsulfamoyl)furan-2-carboxamide]: the IC50 in data set [1] (setting [4]) turned out to be 0.461 µM; in data set [3] (setting [5]) it was 0.224 µM. This molecule also displayed a CC50 at 144 h in data set [2] of 85.7 µM.
As to `CCS(=O)(=O)c1ccc(C(=O)NC2CC3(C2)CC(c2nc4cc(Cl)ccc4o2)C3)o1` (stereo not drawn) [Example 16, N-[6-(5-chloro-1,3-benzoxazol-2-yl)spiro[3.3]heptan-2-yl]-5-ethylsulfonyl-furan-2-carboxamide], the IC50 turned out to be 1.53 µM in data set [1] (setting [4]) and 1.03 µM in data set [3] (setting [5]). Moreover, in data set [2], the CC50 at 144 h was determined as 74 µM.
As to `O=C(NC1CC2(C1)CC(c1nc3cnc(Cl)cc3o1)C2)c1ccc(S(=O)(=O)C2CC2)o1` (stereo not drawn) [Example 51, N-[6-(6-chlorooxazolo[4,5-c]pyridin-2-yl)spiro[3.3]heptan-2-yl]-5-cyclopropylsulfonyl-furan-2-carboxamide], the IC50 amounted to 1.8 µM in data set [1] (setting [4]) and 1.15 µM in data set [3] (setting [5]). In addition, in data set [2], the CC50 at 144 h is more than 100 µM.
The corresponding values for `O=C(NC1CC2(C1)CC(c1nc3cc(Cl)ccc3o1)C2)c1occc1Br` (stereo not drawn) [Example 5, 3-bromo-N-[6-(5-chloro-1,3-benzoxazol-2-yl)spiro[3.3]heptan-2-yl]furan-2-carboxamide] are 8.19 µM, 6.29 µM and 73.2 µM.
